Experimental data taken from patent publication US20220340566A1, “BENZYL AMINE-CONTAINING 5,6-HETEROAROMATIC COMPOUNDS USEFUL AGAINST MYCOBACTERIAL INFECTION” (priority 2019, published 2022).
Where two headings read alike, the source gives them in different places.

Tests used:
[1] = test system: Mycobacterium avium ATCC700898; assay: Determination of IC85 against M. avium (resazurin fluorescence); assay type: cell-based; conditions: 37° C., 3 days incubation then resazurin, fluorescence one day later
[2] = Metabolic stability test in pooled human liver microsomes; assay type: in vitro ADME; conditions: human liver microsomes 0.5 mg protein/mL, 1 mmol/L NADPH, 37° C., 30 minutes
Method in brief: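 Remaining-rate readout: parent compound left after 30 min versus 0 min (set as 100%), measured by LC/MS/MS or SPE/MS. Oxidative reaction ran at 37° C. with 1 mmol/L NADPH, 0.5 mg protein/mL pooled human microsomes, 50 mmol/L Tris-HCl pH 7.4 buffer.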

[3] = Mycobacterium avium, ATCC700898, M. avium ATCC700898, CAMHB medium, read-out: IC85

CCc1nc2cc(F)ccn2c1C(=O)NCc1ccc(N2CCN(c3ccc(C(F)(F)F)cn3)[C@@H](C)C2)c(F)c1.Cl [Compound I-1-113]
IC85 [1, 3]: 4.8 nM | MS_h_% (remaining amount of compound after reaction, 0 minute = 100%) [2]: 79%

CCc1nc2cc(F)ccn2c1C(=O)NCc1ccc(N2CCN(c3ccc(C(F)(F)F)cn3)[C@@H](C)C2)c(F)c1.Cl [Compound I-1-114]
IC85 ([1]; M. avium ATCC700898, CAMHB medium): 7.4 nM | MS_h_% (remaining amount of compound after reaction, 0 minute = 100%) [2]: 87%

CCc1nc2cc(F)ccn2c1C(=O)NCc1ccc(N2CCN(c3ccc(OCC(F)(F)F)cc3)[C@@H](C)C2)c(F)c1.Cl [Compound I-1-115]
IC85 [1, 3]: 4.6 nM | MS_h_% (remaining amount of compound after reaction, 0 minute = 100%) [2]: 69%

CCc1nc2cc(F)ccn2c1C(=O)NCc1ccc(N2CCN(c3ccc(OCC(F)(F)F)nc3)[C@@H](C)C2)c(F)c1.Cl [Compound I-1-116]
IC85 [1, 3]: 11 nM | MS_h_% (remaining amount of compound after reaction, 0 minute = 100%) [2]: 87%

CCc1nc2cc(F)ccn2c1C(=O)NCc1ccc(N2CCN(c3ccc(OC(F)(F)F)c(F)c3)[C@@H](C)C2)c(F)c1.Cl [Compound I-1-117]
IC85 [1, 3]: 2.5 nM | MS_h_% (remaining amount of compound after reaction, 0 minute = 100%) [2]: 83%

CCc1nc2cc(F)ccn2c1C(=O)NCc1ccc(N2CCN(c3ccc(OC(F)(F)F)cc3F)[C@@H](C)C2)c(F)c1.Cl [Compound I-1-118]
IC85 [1, 3]: 7.6 nM | MS_h_% (remaining amount of compound after reaction, 0 minute = 100%) [2]: 97%

CCc1nc2cc(F)ccn2c1C(=O)NCc1ccc(N2CCN(c3cc(F)c(OC(F)(F)F)c(F)c3)[C@@H](C)C2)c(F)c1.Cl [Compound I-1-119]
IC85 [1, 3]: 6.5 nM | MS_h_% (remaining amount of compound after reaction, 0 minute = 100%) [2]: 63%

CCOc1ccc(N2CCN(c3ccc(CNC(=O)c4c(CC)nc5cc(F)ccn45)cc3F)C[C@@H]2C)cn1.Cl [Compound I-1-120]
IC85 [1, 3]: 12 nM | MS_h_% (remaining amount of compound after reaction, 0 minute = 100%) [2]: 71%

CCc1nc2cc(F)ccn2c1C(=O)NCc1ccc(N2CCN(c3ccc(OC(F)(F)C(F)(F)F)cc3)[C@@H](C)C2)c(F)c1.Cl [Compound I-1-121]
IC85 [1, 3]: 3 nM | MS_h_% (remaining amount of compound after reaction, 0 minute = 100%) [2]: 95%

Cc1nn2ccc(Br)cc2c1C(=O)NCc1ccc(N2CCN(c3ccc(OC(F)(F)F)cc3)[C@@H](C)C2)c(F)c1.Cl [Compound I-1-122]
IC85 [1, 3]: 66 nM | MS_h_% (remaining amount of compound after reaction, 0 minute = 100%) [2]: 81%

COc1ccn2nc(C)c(C(=O)NCc3ccc(N4CCC(c5ccc(OC(F)(F)F)cc5)CC4)c(F)c3)c2c1.Cl [Compound I-1-123]
IC85 [1, 3]: 14 nM | MS_h_% (remaining amount of compound after reaction, 0 minute = 100%) [2]: 77%

CCc1nc2cc(F)ccn2c1C(=O)NCc1ccc(N2CCN(c3ccc(OC(F)(F)F)cc3)[C@H]3CCCC[C@@H]32)c(F)c1.Cl [Compound I-1-124]
IC85 [1, 3]: 870 nM | MS_h_% (remaining amount of compound after reaction, 0 minute = 100%) [2]: 63%

COc1ccn2nc(C)c(C(=O)NCc3ccc(N4CCN(c5ccc(OC(F)(F)F)cc5)[C@H]5CCCC[C@@H]54)c(F)c3)c2c1 [Compound I-1-125]
IC85 [1, 3]: 780 nM | MS_h_% (remaining amount of compound after reaction, 0 minute = 100%) [2]: 68%

Cc1ccn2nc(C(F)(F)F)c(C(=O)NCc3ccc(N4CCN(c5ccc(OC(F)(F)F)cc5)[C@@H](C)C4)c(F)c3)c2c1.Cl [Compound I-1-126]
IC85 [1, 3]: 270 nM | MS_h_% (remaining amount of compound after reaction, 0 minute = 100%) [2]: 77%

CCc1nc2cc(F)ccn2c1C(=O)NCc1ccc(N2CCC(c3ccc(OC(F)(F)F)cc3)CC2)c(Cl)c1.Cl [Compound I-1-127]
IC85 [1, 3]: 7.7 nM | MS_h_% (remaining amount of compound after reaction, 0 minute = 100%) [2]: 93%

COc1ccn2nc(C)c(C(=O)NCc3ccc(N4CCC(c5ccc(OC(F)(F)F)cc5)CC4)c(Cl)c3)c2c1.Cl [Compound I-1-128]
IC85 [1, 3]: 18 nM | MS_h_% (remaining amount of compound after reaction, 0 minute = 100%) [2]: 85%

COc1ccn2nc(C)c(C(=O)NCc3cc(F)c(N4CCN(c5ccc(OC(F)(F)F)cc5)[C@@H](C)C4)c(F)c3)c2c1.Cl [Compound I-1-129]
IC85 [1, 3]: 6.8 nM | MS_h_% (remaining amount of compound after reaction, 0 minute = 100%) [2]: 80%

COc1ccn2nc(C)c(C(=O)NCc3ccc(N4CCN(c5ccc(OC(F)(F)F)cc5)[C@@H](C)C4)c(F)c3F)c2c1.Cl [Compound I-1-130]
IC85 [1, 3]: 49 nM | MS_h_% (remaining amount of compound after reaction, 0 minute = 100%) [2]: 74%

COc1ccn2nc(C)c(C(=O)NCc3cc(F)c(N4CCN(c5ccc(OC(F)(F)F)cc5)[C@@H](C)C4)cc3F)c2c1.Cl [Compound I-1-131]
IC85 [1, 3]: 45 nM | MS_h_% (remaining amount of compound after reaction, 0 minute = 100%) [2]: 73%

COc1ccn2nc(C)c(C(=O)NCc3ccc(N4CCN(c5ccc(OC(F)(F)F)cc5)[C@@H](C)C4)c(Cl)c3)c2c1.Cl [Compound I-1-132]
IC85 [1, 3]: 14 nM | MS_h_% (remaining amount of compound after reaction, 0 minute = 100%) [2]: 62%

COc1ccn2nc(C)c(C(=O)NCc3cc(F)c(N4CCC(c5ccc(OC(F)(F)F)cc5)CC4)c(F)c3)c2c1.Cl [Compound I-1-133]
IC85 [1, 3]: 19 nM | MS_h_% (remaining amount of compound after reaction, 0 minute = 100%) [2]: 81%

CCc1nc2ccc(Cl)cn2c1C(=O)NCc1ccc(N2C[C@H](C)N(c3ccc(OCC(F)(F)F)nc3)C[C@H]2C)c(F)c1.Cl [Compound I-1-134]
IC85 [1, 3]: 43 nM | MS_h_% (remaining amount of compound after reaction, 0 minute = 100%) [2]: 65%

CCc1nc2cc(F)ccn2c1C(=O)NCc1ccc(N2C[C@H](C)N(c3ccc(OCC(F)(F)F)nc3)C[C@H]2C)c(F)c1.Cl [Compound I-1-135]
IC85 [1, 3]: 120 nM | MS_h_% (remaining amount of compound after reaction, 0 minute = 100%) [2]: 75%

CCc1nc2cc(F)ccn2c1C(=O)NCc1ccc(N2C[C@H](C)N(c3ccc(OC(F)(F)F)cc3)C[C@H]2C)c(F)c1.Cl [Compound I-1-136]
IC85 [1, 3]: 16 nM | MS_h_% (remaining amount of compound after reaction, 0 minute = 100%) [2]: 86%

Cc1nc2ccc(Cl)cn2c1C(=O)NCc1ccc(N2C[C@H](C)N(c3ccc(OCC(F)(F)F)nc3)C[C@H]2C)c(F)c1.Cl [Compound I-1-137]
IC85 [1, 3]: 100 nM | MS_h_% (remaining amount of compound after reaction, 0 minute = 100%) [2]: 91%

CCc1nc2ccc(Cl)cn2c1C(=O)NCc1ccc(C2=CCC(c3ccc(OC(F)(F)F)cc3)CC2)c(F)c1.Cl (stereo not shown) [Compound I-1-138]
IC85 [1, 3]: 6.8 nM | MS_h_% (remaining amount of compound after reaction, 0 minute = 100%) [2]: 83%

CCc1nc2ccc(Cl)cn2c1C(=O)NCc1ccc(N2CCN(c3ccc(OC(F)(F)F)cc3)[C@@H](C)C2)c(Cl)c1.Cl [Compound I-1-139]
IC85 [1, 3]: 9 nM | MS_h_% (remaining amount of compound after reaction, 0 minute = 100%) [2]: 61%

Cc1nc2ccc(Cl)cn2c1C(=O)NCc1ccc(N2CCN(c3ccc(OC(F)(F)F)cc3)[C@@H](C)C2)c(Cl)c1.Cl [Compound I-1-140]
IC85 [1, 3]: 5.7 nM | MS_h_% (remaining amount of compound after reaction, 0 minute = 100%) [2]: 89%

CCc1nc2cc(F)ccn2c1C(=O)NCc1ccc(N2CCN(c3ccc(OC(F)(F)F)cc3)[C@@H](C)C2)c(Cl)c1.Cl [Compound I-1-141]
IC85 [1, 3]: 2 nM | MS_h_% (remaining amount of compound after reaction, 0 minute = 100%) [2]: 93%

CCc1nc2ccc(Cl)cn2c1C(=O)NCc1ccc(C2CCN(c3ccc(OCC(F)(F)F)nc3)CC2)cc1F.Cl [Compound I-1-142]
IC85 [1, 3]: 30 nM | MS_h_% (remaining amount of compound after reaction, 0 minute = 100%) [2]: 71%

CCOc1ccc(N2CCC(c3ccc(CNC(=O)c4c(CC)nc5ccc(Cl)cn45)c(F)c3)CC2)cc1.Cl [Compound I-1-143]
IC85 [1, 3]: 23 nM | MS_h_% (remaining amount of compound after reaction, 0 minute = 100%) [2]: 77%

CCc1nc2ccc(Cl)cn2c1C(=O)NCc1ccc(C2CCN(c3ccc(C(C)(C)C)cc3)CC2)cc1F.Cl [Compound I-1-144]
IC85 [1, 3]: 17 nM | MS_h_% (remaining amount of compound after reaction, 0 minute = 100%) [2]: 67%

CCCCOc1ccc(N2CCC(c3ccc(CNC(=O)c4c(CC)nc5ccc(Cl)cn45)c(F)c3)CC2)cc1.Cl [Compound I-1-145]
IC85 [1, 3]: 16 nM | MS_h_% (remaining amount of compound after reaction, 0 minute = 100%) [2]: 80%

CCc1nc2cc(F)ccn2c1C(=O)NCc1ccc(C2CCN(c3ccc(OCC(F)(F)F)nc3)CC2)cc1F.Cl [Compound I-1-146]
IC85 [1, 3]: 26 nM | MS_h_% (remaining amount of compound after reaction, 0 minute = 100%) [2]: 85%

CCOc1ccc(N2CCC(c3ccc(CNC(=O)c4c(CC)nc5cc(F)ccn45)c(F)c3)CC2)cc1.Cl [Compound I-1-147]
IC85 [1, 3]: 8.3 nM | MS_h_% (remaining amount of compound after reaction, 0 minute = 100%) [2]: 91%

CCc1nc2cc(F)ccn2c1C(=O)NCc1ccc(C2CCN(c3ccc(C)cc3)CC2)cc1F.Cl [Compound I-1-148]
IC85 [1, 3]: 5.4 nM | MS_h_% (remaining amount of compound after reaction, 0 minute = 100%) [2]: 73%

CCc1nc2cc(F)ccn2c1C(=O)NCc1ccc(C2CCN(c3ccc(C(C)(C)C)cc3)CC2)cc1F.Cl [Compound I-1-149]
IC85 [1, 3]: 15 nM | MS_h_% (remaining amount of compound after reaction, 0 minute = 100%) [2]: 63%

CCc1nc2cc(F)ccn2c1C(=O)NCc1ccc(C2CCN(c3ccc(C(F)(F)F)cc3)CC2)cc1F.Cl [Compound I-1-150]
IC85 [1, 3]: 2.4 nM | MS_h_% (remaining amount of compound after reaction, 0 minute = 100%) [2]: 65%

CCCCOc1ccc(N2CCC(c3ccc(CNC(=O)c4c(CC)nc5cc(F)ccn45)c(F)c3)CC2)cc1.Cl [Compound I-1-151]
IC85 [1, 3]: 10 nM | MS_h_% (remaining amount of compound after reaction, 0 minute = 100%) [2]: 88%

Cc1nn2ccc(F)cc2c1C(=O)NCc1ccc(N2CCN(c3ccc(OC(F)(F)F)cc3)[C@@H](C)C2)c(F)c1.Cl [Compound I-1-152]
IC85 [1, 3]: 110 nM | MS_h_% (remaining amount of compound after reaction, 0 minute = 100%) [2]: 87%

COc1ccn2nc(C)c(C(=O)NCc3ccc(N4C[C@H](C)N(c5ccc(OC(F)(F)F)cc5)C[C@H]4C)c(F)c3)c2c1.Cl [Compound I-1-153]
IC85 [1, 3]: 31 nM | MS_h_% (remaining amount of compound after reaction, 0 minute = 100%) [2]: 72%

Cc1nc2cc(F)ccn2c1C(=O)NCc1ccc(N2CCC(c3ccc(OC(F)(F)F)cc3)CC2)c(F)c1 [Compound I-2-1]
IC85 [1, 3]: 16 nM | MS_h_% (remaining amount of compound after reaction, 0 minute = 100%) [2]: 106%

COc1ccn2c(C(=O)NCc3ccc(N4CCN(c5ccc(OC(F)(F)F)cc5)[C@@H](C)C4)c(F)c3)c(C)nc2c1 [Compound I-2-2]
IC85 [1, 3]: 370 nM | MS_h_% (remaining amount of compound after reaction, 0 minute = 100%) [2]: 97.7%

CCc1nc2cc(F)ccn2c1C(=O)NCc1ccc(N2CCN(c3ccc(OCC(F)(F)F)nc3)[C@@H](CC)C2)c(F)c1.Cl [Compound I-2-3]
IC85 [1, 3]: 17 nM | MS_h_% (remaining amount of compound after reaction, 0 minute = 100%) [2]: 90.3%
